SMILES strings stand for the structures. Read-outs that look alike come from different tables or passages of the source.

Experiment [1] has as its target p38α activated, mitogen-activated protein kinase-activated protein kinase 2 (MAPKAP-K2 or MK2) enzyme (Homo sapiens (Human), UniProt P49137). In words: MK2 Omnia continuous-read kinase assay for compound potency. Type of experiment: biochemical. From the text: Mitogen-Activated Protein Kinase-Activated Protein Kinase 2 Omnia® Assay for Compound Potency Assessment:
The protocol below describes a continuous-read kinase assay optimized to measure potency of compounds against p38α activated, mitogen-activated protein kinase-activated protein kinase 2 (MAPKAP-K2 or MK2) enzyme. Further details of this assay are described by Life Technologies, Carlsbad, Calif. on their website at the following URL: http://tools.lifetechnologies.com/content/sfs/manuals/omnia_kinase_assay_man.pdf.
[Reagent] used: • [MK-2]=0.4 nM, • [ATP]=10 μM and • [ST3-Sox]=10 μM (ATP^appKM=10 μM)
Kinase reactions were started with the addition of 45 μL of the ATP-peptide substrate S/T3-Sox mix and monitored every 71 seconds for 120 minutes at λex360/λem485 in a Synergy H4 plate reader from BioTek (Winooski, Vt.) at room temperature.
Background signals from the no enzyme control wells were subtracted from all progress curves. The initial linear portions of the net progress curves were fit according to a linear equation to yield the slope and percentage of inhibition (% inhibition) at each compound concentration. The net progress curves obtained during the first two hours of reactions were also fit according to an ascending single-exponential equation (Eq. 1) to yield kobs values at each compound concentration. Plots of % Inhibition versus inhibitor concentrations were fit according to a dose-response equation (Eq. 2) to generate IC50 and Hill slope values while plots of kobs versus inhibitor concentration were fit according to Equation 3 (Eq. 3) to generate apparent kinact/KI values using the GraphPad PRISM software (Version 6.00; GraphPad San Diego, Calif.).
[formula] where F is the fluorescence intensity from the plate reader, V0 is a constant reflecting the relationship between the instrument readout and product concentration, t is time, e is Euler's number, and kobs is the observed inactivation rate constant.
[formula] where % Inhibition is percentage of inhibition, IC50 is half maximal inhibitory concentration, [I] is the inhibitor concentration, and n is the Hill slope.

Experiment [2] addresses T1, MK2 (Homo sapiens (Human), UniProt P49137). In words: MK2 cellular assay, total and phospho-Hsp27 (Serine 78) by MSD ELISA (Thp1). Type of experiment: cell-based. As to the method:
MK2 Cellular Assay—Detection of Total and Phospho-Hsp27 (Serine 78) by MSD ELISA (Thp1)
Compounds of the invention were assayed in Thp-1 human acute monocytic leukemia cells to measure inhibition of MK2 activity. Thp-1 cells were grown in culture medium containing RPMI/10% FBS (fetal bovine serum)/0.05 mM 2-mercaptoethanol. 72 hours prior to the assay, 8×10^4 cells per well were plated in a 96 well flat bottom plate along with 10 ng/mL phorbol 12-myristate 13-acetate (PMA). Cells were cultured in an incubator at 37° C. until needed for the assay. Cell plate media was replaced with culture media just prior to assay while compound dilutions were being made.
Stock solutions of test compound, 1 mM in DMSO, were prepared. 0.9 μl of test compound was added to 300 μl cell media for a starting concentration of 3000 nM. […] Cell plate media was discarded, followed by addition of 100 μl of the compound containing media. The resulting preparation was incubated at 37° C. for 1 hour.
Test compound-containing cell assay media was removed and the cells were washed once with cell assay media. Cell assay media containing 50 ng/mL LPS (lipopolysaccharide) was added to the each well and incubated for 45 minutes. Following LPS incubation, the cells were washed once with PBS (phosphate-buffered saline) and lysed with 60 μl Cell Extraction Buffer (Invitrogen #FNN0011) plus protease and phosphatase inhibitors. The plate was then stored at −80° C. until further analysis.
The MULTI-SPOT Phospho(Ser78)/Total HSP27 ELISA Assay kit was purchased from Meso Scale […] (MSD; catalog #K15128D). […] The pre-coated MSD plate was blocked with 150 μL/well of 3% BSA in MSD wash buffer. The preparation was placed on a shaker at room temperature for an hour. While the ELISA plate was blocked, the cell assay plate stored at −80° C. was placed on a shaker at 4° C. for 1 hour to thaw.
The blocked MSD plate was washed on a plate washer, tapping out the last bit of wash solution, followed by addition of 30 μl of the lysate from the cell assay plate. The preparation was covered and incubated for 1 hour at room temperature. The lysate was removed, the plate was washed 3 times on a plate washer and the last bit of wash buffer was tapped out and replaced with 25 μl/well detection antibody (anti-total HSP27 conjugated with an electrochemiluminescent compound, MSD SULFO-TAG label, supplied in kit) made in 1% BSA/MSD wash buffer. The plate was incubated for 1 hour at room temperature on a shaker, followed by 3 washes. The last bit of wash buffer was tapped out. 150 μl/well 1×MSD read buffer was added (4× read buffer supplied with kit) and the plate was analyzed on the MSD SECTOR® Imager for analysis. The SECTOR® Imager measures intensity of emitted light to provide a quantitative measure of phosphorylated HSP27 (Ser78) and total HSP27 present in the sample. The relative percent phosphoprotein in a sample is calculated by dividing the Phospho-HSP27 signal intensity over the total HSP27 signal intensity measured in each well.
On the technique in general: ELISA stands for enzyme-linked immunosorbent assay.

In experiment [3] the target is T1, MK2.
Protocol: Aliquots of the resulting mixture (6 μL each) were diluted with 0.2% trifluoroacetic acid (TFA, 10 μL) prior to micro C4 ZipTipping directly onto the MALDI target using sinapinic acid as the desorption matrix (10 mg/ml in 0.1% TFA:acetonitrile 50:50, v/v). The centroid mass of the target protein in the control sample was compared with the centroid mass of the target protein incubated with compound. A shift in the centroid mass of the treated protein compared to the untreated protein was divided by the molecular weight of the compound. This number corresponds to the percentage of modified protein (a measure of the proportion of total target protein covalently bound to the test compound) after one hour incubation.
3 μL of magnetic Ni-NTA beads were added to the 6 μL aliquots of sample, washed, eluted with 0.2% trifluoroacetic acid (TFA, 2 μL), and spotted directly onto the MALDI target using sinapinic acid as the desorption matrix (10 mg/ml in 0.1% TFA:acetonitrile 50:50, v/v). The centroid mass of the target protein in the control sample was compared with the centroid mass of the target protein incubated with compound. A shift in the centroid mass of the treated protein compared to the untreated protein was divided by the molecular weight of the compound. This number corresponds to the percentage of modified protein (a measure of the proportion of total target protein covalently bound to the test compound) after one hour incubation.
Where [4] appears, read: [MK-2]=0.4 nM, [ATP]=10 μM, [ST3-Sox]=10 μM, read-out: MK2 IC50.
Setting [5] is: Thp-1 cells, 1 hour compound, 50 ng/mL LPS 45 minutes, p-HSP27 (Ser78)/total HSP27, read-out: pHSP27 signaling EC50.
Where [6] appears, read: percentage of modified protein after 60 minutes at room temperature, 10-fold excess of compound, MALDI (I-1 to I-50), magnetic bead MALDI (I-51 to I-129).
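Throughout, for Mass Modification: covalent binding read from centroid mass shift of compound-treated versus untreated intact MK2, shift divided by compound molecular weight, giving fraction of total protein bound.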

T1 sequence (P49137 whole entry): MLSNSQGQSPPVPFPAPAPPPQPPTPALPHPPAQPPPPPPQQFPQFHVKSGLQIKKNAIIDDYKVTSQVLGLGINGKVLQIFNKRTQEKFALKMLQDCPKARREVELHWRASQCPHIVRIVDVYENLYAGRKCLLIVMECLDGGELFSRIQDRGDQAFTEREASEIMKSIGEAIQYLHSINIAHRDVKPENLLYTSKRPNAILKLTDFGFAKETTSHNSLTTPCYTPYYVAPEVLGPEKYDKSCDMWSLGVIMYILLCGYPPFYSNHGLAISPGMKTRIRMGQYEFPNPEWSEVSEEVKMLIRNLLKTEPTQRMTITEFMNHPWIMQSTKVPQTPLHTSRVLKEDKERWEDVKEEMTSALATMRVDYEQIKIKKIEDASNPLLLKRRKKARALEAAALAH
p38α activated, mitogen-activated protein kinase-activated protein kinase 2 (MAPKAP-K2 or MK2) enzyme, sequence (P49137 whole entry): as above

For `C[C@@H]1CNc2c(sc3ccc4nc(Nc5nc(Cl)ncc5C#N)ccc4c23)C(=O)N1` [I-16, (R)-2-chloro-4-((10-methyl-8-oxo-9,10,11,12-tetrahydro-8H-[1,4]diazepino[5′,6′:4,5]thieno[3,2-f]quinolin-3-yl)amino)pyrimidine-5-carbonitrile], in experiment [1] (setting [4]), the IC50 (usually the concentration that gives 50% inhibition) was below 100 nM. Moreover, the concentration for a half-maximal effect (EC50) (commonly the concentration at which the effect is half-maximal) in experiment [2] (setting [5]) was below 100 nM. The “Mass Modification” value in experiment [3] (setting [6]) is “E (mass modification of ≧70%)”.

With `O=C1N[C@H](CO)CNc2c1sc1ccc3nc(Nc4cc(F)ncn4)ccc3c21` [I-17, (S)-3-((6-fluoropyrimidin-4-yl)amino)-10-(hydroxymethyl)-9,10,11,12-tetrahydro-8H-[1,4]diazepino[5′,6′:4,5]thieno[3,2-f]quinolin-8-one], the IC50 in experiment [1] (setting [4]) is below 100 nM. Moreover, in experiment [2] (setting [5]), the EC50 is above 1000 nM. In experiment [3] (setting [6]), the “Mass Modification” value is on record as “F (mass modification of 31-69%)”.

As for `CCOC(=O)c1cnc(Cl)nc1Nc1ccc2c(ccc3sc4c(c32)NC[C@@H](C)NC4=O)n1` [I-18, (R)-ethyl 2-chloro-4-((10-methyl-8-oxo-9,10,11,12-tetrahydro-8H-[1,4]diazepino[5′,6′:4,5]thieno[3,2-f]quinolin-3-yl)amino)pyrimidine-5-carboxylate], the IC50 in experiment [1] (setting [4]) was below 100 nM. Moreover, in experiment [2] (setting [5]), the EC50 was in the range of 101 to 500 nM. The “Mass Modification” value in experiment [3] (setting [6]) is listed as “F (mass modification of 31-69%)”.

Consider `O=C1N[C@H](CO)CNc2c1sc1ccc3nc(Nc4cc(Cl)ncn4)ccc3c21` [I-22, (S)-3-((6-chloropyrimidin-4-yl)amino)-10-(hydroxymethyl)-9,10,11,12-tetrahydro-8H-[1,4]diazepino[5′,6′:4,5]thieno[3,2-f]quinolin-8-one], for which the IC50 in experiment [1] (setting [4]) was below 100 nM. In addition, in experiment [2] (setting [5]), the 50% effective concentration (EC50) was 501 to 999 nM. The “Mass Modification” value in experiment [3] (setting [6]) was “F (mass modification of 31-69%)”.

As to `C[C@@H]1CNc2c(sc3ccc4nc(Nc5nc(Cl)ncc5C(=O)N5CC[C@@H](N(C)C)C5)ccc4c23)C(=O)N1` [I-24, (R)-3-((2-chloro-5-((R)-3-(dimethylamino)pyrrolidine-1-carbonyl)pyrimidin-4-yl)amino)-10-methyl-9,10,11,12-tetrahydro-8H-[1,4]diazepino[5′,6′:4,5]thieno[3,2-f]quinolin-8-one], the 50% inhibitory concentration (IC50) in experiment [1] (setting [4]) is 501 to 999 nM. Further, in experiment [2] (setting [5]), the EC50 is above 1000 nM. In experiment [3] (setting [6]), the “Mass Modification” value is recorded as “G (mass modification ≦30%)”.

Take `C[C@@H]1CNc2c(sc3ccc4nc(Nc5cc(Cl)ncc5C#N)ccc4c23)C(=O)N1` [I-25, (R)-6-chloro-4-((10-methyl-8-oxo-9,10,11,12-tetrahydro-8H-[1,4]diazepino[5′,6′:4,5]thieno[3,2-f]quinolin-3-yl)amino)nicotinonitrile]: the IC50 in experiment [1] (read-out: MK2 IC50) was below 100 nM. Also, the 50% effective concentration (EC50) in experiment [2] (setting [5]) was below 100 nM. In addition, the “Mass Modification” value in experiment [3] is “F (key: E: mass modification of ≧70%; F: mass modification of 31-69%; G: mass modification ≦30%)”.

For the molecule `NC[C@@H]1CNc2c(sc3ccc4nc(Nc5cc(F)ncn5)ccc4c23)C(=O)N1` [I-26, (R)-10-(aminomethyl)-3-((6-fluoropyrimidin-4-yl)amino)-9,10,11,12-tetrahydro-8H-[1,4]diazepino[5′,6′:4,5]thieno[3,2-f]quinolin-8-one], in experiment [1] (setting [4]), the concentration for half-maximal inhibition (IC50) was below 100 nM. In addition, in experiment [2] (setting [5]), the EC50 is above 1000 nM. The “Mass Modification” value in experiment [3] (setting [6]) is given as “E (mass modification of ≧70%)”.

On to `C[C@@H]1CNc2c(sc3ccc4nc(Nc5cc(F)ncc5C#N)ccc4c23)C(=O)N1` [I-27, (R)-6-fluoro-4-((10-methyl-8-oxo-9,10,11,12-tetrahydro-8H-[1,4]diazepino[5′,6′:4,5]thieno[3,2-f]quinolin-3-yl)amino)nicotinonitrile], for which the 50% inhibitory concentration (IC50) in experiment [1] (setting [4]) is below 100 nM. In experiment [2] (setting [5]), the EC50 is below 100 nM. In addition, the “Mass Modification” value in experiment [3] (setting [6]) was “G (mass modification ≦30%)”.

`NC[C@@H]1CNc2c(sc3ccc4nc(Nc5cc(Cl)ncn5)ccc4c23)C(=O)N1` [I-28, (R)-10-(aminomethyl)-3-((6-chloropyrimidin-4-yl)amino)-9,10,11,12-tetrahydro-8H-[1,4]diazepino[5′,6′:4,5]thieno[3,2-f]quinolin-8-one]: the IC50 in experiment [1] (setting [4]) was below 100 nM. Also, in experiment [2] (setting [5]), the concentration giving a half-maximal response (EC50) is above 1000 nM. Besides, the “Mass Modification” value in experiment [3] (setting [6]) is given as “E (mass modification of ≧70%)”.

As for `C[C@@H]1CNc2c(sc3ccc4nc(Nc5cc(F)ncc5C(N)=O)ccc4c23)C(=O)N1` [I-29, (R)-6-fluoro-4-((10-methyl-8-oxo-9,10,11,12-tetrahydro-8H-[1,4]diazepino[5′,6′:4,5]thieno[3,2-f]quinolin-3-yl)amino)nicotinamide], the half-inhibitory concentration (IC50) in experiment [1] (setting [4]) is below 100 nM. Further, the EC50 in experiment [2] (setting [5]) is above 1000 nM. In addition, the “Mass Modification” value in experiment [3] (setting [6]) was “G (mass modification ≦30%)”.

As for `NC(=O)c1cnc(Cl)nc1Nc1ccc2c(ccc3sc4c(c32)NC[C@@H](CO)NC4=O)n1` [I-30, (S)0-2-chloro-4-((10-(hydroxymethyl)-8-oxo-9,10,11,12-tetrahydro-8H-[1,4]diazepino[5′,6′:4,5]thieno[3,2-f]quinolin-3-yl)amino)pyrimidine-5-carboxamide], the IC50 in experiment [1] (setting [4]) is below 100 nM. In addition, the EC50 in experiment [2] (setting [5]) is 101 to 500 nM. Further, the “Mass Modification” value in experiment [3] (setting [6]) is “E (mass modification of ≧70%)”.

As to `C[C@@H]1CNc2c(sc3ccc4nc(N(CCN(C)C)c5cc(F)ncn5)ccc4c23)C(=O)N1` [I-33, (R)-3-((2-(dimethylamino)ethyl)(6-fluoropyrimidin-4-yl)amino)-10-methyl-9,10,11,12-tetrahydro-8H-[1,4]diazepino[5′,6′:4,5]thieno[3,2-f]quinolin-8-one], in experiment [1], the concentration for half-maximal inhibition (IC50) fell in the range of 501 to 999 nM. Also, in experiment [2], the concentration giving a half-maximal response (EC50) was above 1000 nM. Moreover, in experiment [3] (setting [6]), the “Mass Modification” value was “F (mass modification of 31-69%)”.

In the case of `C[C@@H]1CNc2c(sc3ccc4nc(N(C)c5nc(Cl)ncc5C(N)=O)ccc4c23)C(=O)N1` [I-34, (R)-2-chloro-4-(methyl(10-methyl-8-oxo-9,10,11,12-tetrahydro-8H-[1,4]diazepino[5′,6′:4,5]thieno[3,2-f]quinolin-3-yl)amino)pyrimidine-5-carboxamide], in experiment [1] (setting [4]), the 50% inhibitory concentration (IC50) was 501 to 999 nM. Also, the EC50 in experiment [2] (setting [5]) was above 1000 nM. For the same molecule, the “Mass Modification” value in experiment [3] (setting [6]) is on record as “G (mass modification ≦30%)”.

Turning to `CNC[C@@H]1CNc2c(sc3ccc4nc(Nc5cc(F)ncn5)ccc4c23)C(=O)N1` [I-35], the IC50 in experiment [1] (setting [4]) fell in the range of 101 to 500 nM. Moreover, the concentration giving a half-maximal response (EC50) in experiment [2] (setting [5]) was in the range of 501 to 999 nM. Further, the “Mass Modification” value in experiment [3] (setting [6]) is on record as “F (mass modification of 31-69%)”.

These data come from patent US9790235B2, “MK2 inhibitors and uses thereof” (Celgene CAR LLC, priority 2014, dated 2017).
